Measurements from PMC5291098, “Molecular mutagenesis of ppGpp: turning a RelA activator into an inhibitor” (Scientific Reports, 2017).
“And” between values parts separate entries of the source, which are not always exact repeats. Equal values may be shown once. “Also recorded” adds a separate entry of the source. Read-outs that look alike come from different tables or passages of the source. Values belong to the compound of their own block, whether it stands above or below them.

Assays:
[1] = target: T1, E. coli RelA (Escherichia coli, UniProt P0AG20); assay: Inhibition of [3H]GDP to [3H]ppGpp conversion by E. coli RelA activated by vacant 70S ribosomes and 100 μM ppGpp; assay type: biochemical; details: for IC50: 30 nM RelA, 0.5 μM vacant 70S, 100 μM ppGpp; for nHill (Hill coefficient of the titration fit): Supplementary Table 1, 4-parameter logistic model
T1 construct: made in house
Method: For the initial characterization of compounds, we followed the inhibition of [^3H] GDP conversion to [^3H] ppGpp catalyzed by E. coli RelA in a simplified system in which RelA’s activity was induced by vacant 70S ribosomes and 100 μM of ppGpp[15]. Unlabeled ppGpp was added to reaction mixtures in order to linearize the kinetics of [^3H] ppGpp synthesis due to an activating effect on the RelA enzyme. We used a targeted library of 69 nucleotides belonging to several structural classes: ‘true’ ppGpp analogues; Relacin and its derivatives; pyrrolidine, azetidine, piperidine and acyclic phosphonates. Chemical structures of tested compounds and titrations in the RelA:70S:ppGpp system are presented in Supplementary Table 1.
(§1) Detailed description of experimental procedures can be found in Supplementary Text. Biochemical assays utilize in vitro translation[58] and stringent response[15] systems from E. coli purified components. Experiments were performed in HEPES:Polymix[58] buffer with either 5 (for enzymatically assembled initiation complexes) or 15 mM (for vacant 70 S, as well as non-enzymatically assembled programmed ribosomes) Mg^2+. Expression and purification of E. faecalis RelQ was performed as per Gaca (2015) and colleagues. GTPase and ppGpp synthesis were followed using TLC separation and radiochemical detection of ^3H-labelled nucleotides. Multiple round in vitro transcription assays were performed as per Bernardo et al.[49] with minor modifications. Inhibition efficiency (IC50) was calculated using 4-parameter logistic model (Hill equation) as per Sebaugh[60].
(§2) Thin layer chromatography (TLC) analysis of nucleotide mixtures
(§3) Both EF-G GTPase reaction and ppGpp synthesis by RelA were followed by TLC analysis followed by scintillation counting according to Mechold and colleagues, with modifications1. Time points from the reaction mixtures (5 μl, see below for details) were quenched by addition 4 μl 70% formic acid supplemented with a cold nucleotide standard used for UV-shadowing (10 mM GDP and 10 mM GTP) and spotted on PEI-TLC plates (Macherey-Nagel). TLC was run in buffer, plates dried, cut into sections guided by UV-shadowing and 3H radioactivity was quantified by scintillation counting in Optisafe-3 (Fisher) scintillation cocktail on Perkin Elmer Tricarb 2810TR counter. Conversion of substrate to product was quantified as described in Shyp et al. (2012)2.
Enzymatic assays with E. coli RelA
Screening: all experiments were performed in HEPES:Polymix, Mg2+ of 5 mM, 37 […]
μM ppGpp was pre-incubated at 37° C for 2 min and then reaction started by addition of 1 mM ATP, time points (5 μl) taken, quenched with formic acid and analyzed by TLC. Inhibition efficiency (IC50) was calculated using 4-parameter logistic model (Hill equation) as per Sebaugh (2011)3. […]

[2] = tested on: T2, E. coli EF-G; assay type: biochemical
T2 construct: made in house
Method: as §2
as §3, with “(2012)2. […]” for “(2012)2.”
GTPase assays with E. coli EF-G
The reaction mixture contained 0.5 μM 70S, 0.1 μM EF-G, in HEPES:Polymix (25 mM Hepes 7.5/ 1 mM DTT / 5 mM Mg2+) pre-incubated for 2 minutes at 37°C prior to addition of 300 μM [3H]GTP substrate (Hartman), after which time points (5 μl) taken, quenched with formic acid and analyzed by TLC (see above). […]

[3] = tested on: transcription or translation in E. coli reconstituted systems; parameters: method as in PMID 7047215; details: cited from earlier work
[4] = target: T3, E. faecalis SAS RelQ (RelQEf) (Enterococcus faecalis, UniProt Q830U9); assay: Inhibition of E. faecalis SAS RelQ ppGpp synthesis; assay type: biochemical; details: concentrations up to 1 mM
Description: In E. coli, ppGpp is synthesized by the multi-domain RSHs RelA and SpoT, however, numerous single-domain RSHs – Small Alarmone Synthetases (SAS) – are widely distributed across bacterial taxa[3]. […] Therefore we tested the effects of DR-4250, DR-M014 and DR-5163 on RelQEf activity (Supplementary Figure 2).
as §1
RelQ activity0.4 RelQ activity0.4 RelQ activity0.4
Supplementary Figure 2 | Inhibition of E. faecalis SAS RelQ by DR-4250, DR-
M014 and DR-5163 is inefficient. The reaction mixture contains 0.25 µM RelQEf,
300 µM [3H] GDP, 0.5 mg/ml BSA, 100 µM ppGpp, 1 mM ATP in Hepes:Polymix at […]

[5] = tested on: ΔywaCΔyjbM B. subtilis; assay: Growth of ΔywaCΔyjbM B. subtilis in valine drop-out S7 medium (functional test for Rel inhibition); assay type: cell-based, Bacillus subtilis; details: up to 1 mM (0 to 1000 µM)
Description: Finally, we tested the three of our most promising inhibitors (DR-4250, DR-M014 and DR-5163) for RSH inhibition in bacterial culture. For this we used the Gram-positive bacterium B. subtilis due to its better uptake of compounds as compared to Gram-negative species such as E. coli[50]. The functional test for RSH inhibition relied on the auxotrophy of (p)ppGpp-deficient (ppGpp^0) B. subtilis for methionine and branched-chain amino acids valine, leucine and isoleucine. The B. subtilis RSH repertoire consists of one multi-domain ribosome-associated enzyme Rel and two SAS, YwaC and YjbM[3][52]. Because the SAS RelQEf is refractory to inhibition by our test compounds (Supplementary Figure 2), we used a B. subtilis strain lacking SASs (ΔywaCΔyjbM), in which the sole source of (p)ppGpp is Rel[53]. Defined S7 medium[54] lacking valine supports the growth of ΔywaCΔyjbM B. subtilis, but not the ppGpp^0 stain (Supplementary Figure 5). […] This is indicative of the test compounds failing to inhibit Rel and thereby rendering the strain phenotypically ppGpp^0 (Supplementary Figure 5). A lack of cellular uptake is a likely explanation. […]
Growth assays with Bacillus subtilis BSB1 wild type strain
SAS deletion and ppGpp0 strain of B. subtilis5 were grown in S7 liquid medium6 except for amino acid requirements, which were met as described elsewhere 7. On 96-well plate, 90 µl of B subtilis starter culture was mixed with 10 µL of compound dilution (in 5 mM Tris pH 7.2) so that final OD600 was 0.025 (l = 1 cm).
Following incubation was without shaking at 37°C and growth was monitored with Tecan Infinite M200 at OD600 (raw OD600 values are reported). B. subtilis starter culture was prepared as follows. Late exponential phase cells in S7, with full set of amino acids, were diluted ≈10-fold in S7 lacking either valine or lysine so that, after addition of 8% DMSO, OD600 was 0.25. Next, cell suspensions were aliquoted, frozen in liquid nitrogen, and stored at -80°C. Just before the experiment, cells were thawed on ice and appropriate amount of media was […]
DywaC DyjbM BSB1 B. subtilis ppGpp0. BSB1 B. subtilis wild type strain as grown on S7 synthetic media8 drop-out media lacking valine which abolishes the growth of ppGpp0 (Drel DywaC DyjbM) strain due to valine auxotrophy (dashed line). […]
inhibit the Rel and render the strain ppGpp0.

[6] = target: T1, E. coli RelA; parameters: method as in PMID 20483622; details: read-out: IC50 / concentration for 50% inhibition of E. coli RelA; in the test tube; cited from earlier work
[7] = tested on: T4, E. coli σ70-RNAP holoenzyme; assay: Multiple round in vitro transcription by σ70-RNAP (rrnB P1 and rna1 promoters); assay type: biochemical, Escherichia coli; details: concentrations up to 5 mM; regardless of presence or absence of 2 μM DksA and 100 μM ppGpp
T4 construct: purchased Epicentre
Method: Next, we tested their effects on RNAP. […] We used multiple round in vitro transcription driven from the rrnB P1, a well-characterized ppGpp/DksA inhibited promoter, as described earlier[49]. The assays were performed in the presence and absence of 2 μM DksA and/or 100 μM ppGpp (Fig. 5a).
Effect of inhibitors on rrnB P1 (−66 to +50) promoter transcription by RNAP. Graphs depicting inhibitor (0, 0.025, 0.05, 0.15, 0.4 and 0.6 mM) titrations performed at 30 °C in T-buffer with 0.5 nM template (σ^70-rrnB P1 promoter (pRLG6214)) and 5 nM σ^70-RNAP, in presence or absence of 100 μM ppGpp and/or 2 μM DksA. Error bars represent standard deviations of linear regression estimates, each experiment was performed at least three times.
The assays were performed as per Bernardo et al. (2006)4 with minor modifications. Reactions were carried out in T-buffer (50 mM Tris-HCl pH 7.5, 100 mM NaCl, 10 mM MgCl2, 1 mM dithiothreitol, 0.1 mM EDTA and 0.275 mg of BSA per ml) at 30°C. Inhibitors were titrated to final concentrations of 0, 0.025, 0.05, 0.15, 0.4 and 0.6 mM. E. coli s 70-RNAP holoenzyme (Epicentre, final concentration 5 nM) and template plasmid DNA containing s70-rrnB P1 promoter, (pRLG6214, final concentration 0.5 nM) was used for all experiments. Before initiation of transcription, E. coli s70-RNAP holoenzyme and T buffer were incubated at 30°C for 5 min. Above mix was added to predispensed mixture of inhibitor and the template plasmid DNA containing s70-rrnB P1 promoter (pRLG6214), incubated for further 20 min to initiate open complex formation. 2.5 µl of a mixture of ATP (ﬁnal concentration 0.5 mM), GTP and CTP (ﬁnal concentration 0.2 mM each), UTP (ﬁnal concentration 0.08 mM) and [a-32P]-UTP (5 µCi at > 3000 Ci/mmol, PerkinElmer) was added to initiate transcription by RNAP. After 7 min, 1 µl heparin (0.125 mg/ml ﬁnal concentration) was added to the reaction mixture to prevent re-initiation and further incubated for 5 min to allow completion of initiated transcripts. Transcription was terminated by addition of formamide loading buffer and samples were electrophoresed on a 7M urea-5% polyacrylamide gel and quantified by phosphorimaging.

[8] = target: T3, E. faecalis SAS RelQ (RelQEf); details: found earlier; cited from earlier work
[9] = tested on: Bacillus subtilis; parameters: method as in PMID 20483622; details: mM-range concentrations; cited from earlier work
[10] = target: 70S initiation complexes programmed with mRNA(MF) (E. coli) (UniProt P0AG67); assay: co-sedimentation; spin-down assay: 2 uM RelA, 1 uM 70S initiation complexes programmed with mRNA(MF), with or without 3 uM deacylated tRNA-Phe and 500 uM DR-4250 or DR-M014; 37 C for 15 min; 30% sucrose cushion, 70,000 r.p.m., 25 min, 12 C; pellets on 10% SDS-PAGE; the stoichiometry is told for the sample with A-site deacylated tRNA-Phe
[11] = 0.3 mM [3H]GDP, 1 mM ATP, read-out: IC50

T1 sequence (P0AG20 whole entry): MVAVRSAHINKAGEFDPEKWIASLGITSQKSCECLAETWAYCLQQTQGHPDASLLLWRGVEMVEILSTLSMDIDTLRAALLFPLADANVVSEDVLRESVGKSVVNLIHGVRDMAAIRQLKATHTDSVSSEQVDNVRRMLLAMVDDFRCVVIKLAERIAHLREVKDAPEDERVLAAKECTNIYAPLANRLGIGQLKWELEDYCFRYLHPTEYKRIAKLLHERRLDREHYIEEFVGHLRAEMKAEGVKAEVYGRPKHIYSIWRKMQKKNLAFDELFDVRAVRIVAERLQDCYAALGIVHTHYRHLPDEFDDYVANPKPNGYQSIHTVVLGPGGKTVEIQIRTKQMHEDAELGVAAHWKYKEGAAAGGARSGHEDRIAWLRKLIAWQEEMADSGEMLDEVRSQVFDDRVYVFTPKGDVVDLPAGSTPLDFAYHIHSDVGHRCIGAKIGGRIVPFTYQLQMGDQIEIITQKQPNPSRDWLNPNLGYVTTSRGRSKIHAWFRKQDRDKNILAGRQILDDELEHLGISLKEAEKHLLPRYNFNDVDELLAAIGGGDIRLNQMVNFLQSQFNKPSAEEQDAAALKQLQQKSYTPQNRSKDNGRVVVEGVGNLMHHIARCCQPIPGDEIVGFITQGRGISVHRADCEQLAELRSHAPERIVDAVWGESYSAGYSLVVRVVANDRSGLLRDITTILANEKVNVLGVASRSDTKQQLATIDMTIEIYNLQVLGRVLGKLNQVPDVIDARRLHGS
T3 sequence (Q830U9 entry or part of it): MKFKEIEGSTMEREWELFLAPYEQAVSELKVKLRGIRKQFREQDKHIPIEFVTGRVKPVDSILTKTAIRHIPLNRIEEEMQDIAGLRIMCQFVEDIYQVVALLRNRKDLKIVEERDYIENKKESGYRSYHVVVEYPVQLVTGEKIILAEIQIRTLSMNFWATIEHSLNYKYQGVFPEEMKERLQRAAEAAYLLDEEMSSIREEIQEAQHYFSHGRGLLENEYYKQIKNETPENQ
Escherichia coli RelA, sequence (P0AG20 whole entry): as the sequence (P0AG20 whole entry) above

Compound: Nc1ncnc2c1ncn2C1OC(COP(=O)(O)OP(=O)(O)O)C(OP(=O)(O)OP(=O)(O)O)C1O (stereo not shown) [ppApp]
IC50 [1, 11]: 0.0245 ± 0.0035 mM
nHill (Hill coefficient of the titration fit) [1]: 0.7 ± 0.1
Activation of RelA's synthetic activity (in words) ([1]; ppGpp up to 100 μM, ppApp 50 µM-1 mM, thio-ppGpp 100 µM (Supplementary Figure 1)): do not activate; also recorded: neither ppApp nor 6-thio-ppGpp activate
Inhibitory effect on EF-G GTPase activity (in words) ([2]; up to 100 μM): no inhibitory effect
Inhibitory effect on transcription or translation (in words) [3]: does not have a pronounced inhibitory effect

Compound: Nc1nc2c(ncn2CCNC(=O)P(=O)(O)O)c(=O)[nH]1 [DR-5163]
IC50 [1, 11]: 0.245 ± 0.039 mM
IC50 ([1]; 5 mM Mg2+, 37 °C, no unit beside the value, titration axis in mM, read-out: IC50 (Supplementary Table 1, example titration)): 0.25 ± 0.05 mM
nHill (Hill coefficient of the titration fit) [1]: 1.3 ± 0.26
Effect on RelQEf activity (in words) [4]: inefficient; also recorded: almost inactive
Inhibitory effect on EF-G GTPase activity (in words) ([2]; up to 1 mM): no inhibitory effect
Effect on growth of ΔywaCΔyjbM B. subtilis (in words) [5]: did not affect bacterial growth; also recorded: does not affect the growth

Compound: Nc1nc2c(ncn2[C@H]2C[C@H](OP(=O)(O)CP(=O)(O)O)[C@@H](COP(=O)(O)CP(=O)(O)O)O2)c(=O)[nH]1 [(10), 2′-deoxyguanosine-3′-5′-di(methylene bisphosphonate)]
IC50 [6]: ~1000 µM and 1000 µM

Compound: CC(C)C(=O)Nc1nc2c(ncn2[C@H]2C[C@H](OC(=O)NCC(=O)NCC(=O)O)[C@@H](COC(=O)NCC(=O)NCC(=O)O)O2)c(=O)[nH]1 [Relacin, reference compound]
IC50 [1, 11]: 0.84 ± 0.2 mM
nHill (Hill coefficient of the titration fit) [1]: 1.8 ± 0.001
Inhibitory effect on EF-G GTPase activity (in words) ([2]; up to 5 mM): no inhibitory effect
Effect on rrnB P1 transcription by RNAP (in words) [7]: mild inhibitory effect
Sensitivity of RelQEf to Relacin (in words) [8]: virtually insensitive
Biological effect on Bacillus subtilis (in words) [9]: has a biological effect

stoichiometry N [10]: 1
Compound: Escherichia coli RelA (from UniProt P0AG20 1-744) (enzyme)
